{"source": "ChEMBL document CHEMBL3421584", "about": "“Allosteric modulators: an emerging concept in drug discovery” (ACS Med Chem Lett, 2015)"}
{"target": "Metabotropic glutamate receptor 2 (Homo sapiens) (UniProt Q14416)", "sequence (Q14416 19-872 limits assumed)": "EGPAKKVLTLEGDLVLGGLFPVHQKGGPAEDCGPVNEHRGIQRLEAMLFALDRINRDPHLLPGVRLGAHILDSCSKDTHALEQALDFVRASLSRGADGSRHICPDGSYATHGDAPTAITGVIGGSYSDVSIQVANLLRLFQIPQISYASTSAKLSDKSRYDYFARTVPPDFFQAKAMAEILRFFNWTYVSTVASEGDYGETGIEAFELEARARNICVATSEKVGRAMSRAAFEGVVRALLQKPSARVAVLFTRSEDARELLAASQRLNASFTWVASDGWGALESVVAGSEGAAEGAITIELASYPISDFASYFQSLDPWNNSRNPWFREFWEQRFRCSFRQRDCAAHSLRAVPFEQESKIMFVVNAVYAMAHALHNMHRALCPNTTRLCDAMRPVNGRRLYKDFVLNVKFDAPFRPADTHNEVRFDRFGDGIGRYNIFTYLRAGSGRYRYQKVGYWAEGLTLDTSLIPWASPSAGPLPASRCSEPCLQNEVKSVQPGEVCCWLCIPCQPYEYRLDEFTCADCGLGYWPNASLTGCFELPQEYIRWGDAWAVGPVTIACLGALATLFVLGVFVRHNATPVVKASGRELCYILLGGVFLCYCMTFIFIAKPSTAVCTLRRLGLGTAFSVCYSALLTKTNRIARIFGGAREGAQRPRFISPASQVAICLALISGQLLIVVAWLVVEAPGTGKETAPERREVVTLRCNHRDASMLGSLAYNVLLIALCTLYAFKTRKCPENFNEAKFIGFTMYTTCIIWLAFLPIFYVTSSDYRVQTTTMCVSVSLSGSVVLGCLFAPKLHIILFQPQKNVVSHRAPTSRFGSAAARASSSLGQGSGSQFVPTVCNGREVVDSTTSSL", "test": "Negative allosteric modulation of human mGluR2 receptor expressed in CHO cell membranes assessed as inhibition of glutamate responses after 30 mins by [35S]GTPgammaS binding assay", "type": "functional", "units": {"Emax": "%"}}
{"smiles": "C[C@H]1CN(c2ccc(C(F)(F)F)c(Cl)c2)C(=O)c2c(-c3ccnc(C#N)c3)cnn21", "Emax": 109}
{"smiles": "CCC1CN(c2ccc(C(F)(F)F)cc2)C(=O)c2c(-c3ccnc(C)c3)cnn21", "note": "(centres undefined)", "Emax": 106}
{"smiles": "Cc1cc(-c2cnn3c2C(=O)N(c2ccc(C(F)(F)F)cc2)C[C@@H]3C)ccn1", "Emax": 106}
{"smiles": "Cc1cc(-c2cnn3c2C(=O)N(c2ccc(C(C)O)cc2)C[C@@H]3C)ccn1", "note": "(some centres undefined)", "Emax": 49}
